Measured values as given in US20100069393A1, “METHOD OF TREATMENT AND AGENTS USEFUL FOR SAME” (PRANA BIOTECHNOLOGY LIMITED, priority 2006, published 2010).

Tests used:
[1] = Mice plasma concentration; format: in vivo; details: for Mice plasma concentration: presence in plasma at one or two time points (between 30 min and 4 h); for Mice plasma concentration (single dose): one or two time points (between 30 min and 4 h)
[2] = Neurotoxicity assay: MTS viability of primary cortical neuronal cultures; format: cell-based, mouse; details: BL6Jx129sv, mouse, primary cortical neuronal cultures, Neuronal cells, read-out: Cytotoxicity (% viable at 1 and 10 uM); for viability at 4 days, 1 uM: test compound 1 uM; for viability at 4 days, 10 uM: test compound 10 uM
[3] = Cytotoxicity: viability of M17 cells; details: human, M17 neuroblastoma cells, Cytotoxicity (% viable at 1 and 10 uM); for viability at 1 uM: test compound 1 uM; for viability at 10 uM: test compound 10 uM
[4] = In vivo toxicity, visual observations; details: 30 mg/kg, number of days

Compound	Mice plasma concentration [1]	viability at 4 days, 1 uM [2] [%]	viability at 4 days, 10 uM [2] [%]	viability at 1 uM [3] [%]	viability at 10 uM [3] [%]	Toxicity at 30 mg/kg [4]	Mice plasma concentration (single dose) [1]
O=c1c2c(Cl)cc(Cl)c(O)c2ncn1N1CCOCC1	Up to 45.2 ng/mL	105	70	95.9	80.9	10 days, none	–
CC(C)Cn1cnc2c(O)c(Cl)cc(Cl)c2c1=O	Up to 1802 ng/mL	99	70	102	75.6	10 days, none	–
CCNCc1ccc2c(Cl)cc(Cl)c(O)c2n1.Cl	Up to 403 ng/mL	87	56	78.3	44	10 days, none	–
OCCN1C=Nc2c(O)c(Cl)cc(Cl)c2C1	Up to 8134.8 ng/mL	107	96	115	119	10 days, none	–
Cn1c(-n2cnc3c(O)c(Cl)cc(Cl)c3c2=O)nc2ccccc21	Up to 112.4 ng/mL	105	97	107	94.9	10 days, none	–
O=c1c2c(Cl)cc(Cl)c(O)c2ncn1-c1ccccn1 [drawing 171]	–	95	81	101	80.5	10 days, none	Up to 142.9 ng/mL (single dose)
O=c1c2cccc(O)c2ncn1Cc1cccc(Cn2cnc3c(O)cccc3c2=O)n1	Up to 128.4 ng/mL	–	–	117	106	10 days, none	–
O=c1c2c(Cl)cc(Cl)c(O)c2ncn1CCN1CCCC1	–	104	91	104	101	14 days, 1 of 4 death	Up to 520 ng/mL (single dose)
O=c1c2c(Cl)cc(Cl)c(O)c2ncn1CCNCc1ccncc1	Up to 1639.8 ng/mL	–	–	103	105	10 days, none	–
CCCCNC(=O)C1=CN=C2C(O)=C(I)C=CN2C1	Up to 27,598 ng/ml ng/mL	–	–	85.3	63.4	10 days, none	–
Br.CN(C)Cc1nc2c(O)c(Cl)cc(Cl)c2c(=O)[nH]1	Up to 642.6 ng/mL	–	–	97.4	100	10 days, none	–
O=c1c2ccc(I)c(O)c2ncn1Cc1ccccn1	Up to 1538 ng/mL	–	–	93.8	84.5	10 days, none	–
O=c1c2c(Cl)cc(Cl)c(O)c2ncn1Cc1nc2ccccc2s1	Up to 166.1 ng/mL	–	–	111	80.9	10 days, none	–
Br.CCCn1cnc2c(O)c(Cl)cc(Cl)c2c1=O	Up to 2641 ng/mL	102	83	107	98.8	10 days, none	–
Br.CN(C)Cc1nc2c(O)c(Cl)cc(Cl)c2c(=O)n1C	Up to 492.1 ng/mL	–	–	104	111	10 days, 1 of 4 mild signs	–
O=c1c2c(Cl)cc(Cl)c(O)c2ncn1Cc1cccnc1	Up to 4023.4 ng/mL	–	–	106	95.4	10 days, none	–
O=c1c2c(Cl)cc(Cl)c(O)c2ncn1-c1ccc2[nH]ncc2c1	Up to 126 ng/mL	–	–	96.2	88.9	10 days, none	–

Compound	Mice plasma concentration [1]	viability at 4 days, 1 uM [2] [%]	viability at 4 days, 10 uM [2] [%]	viability at 1 uM [3] [%]	viability at 10 uM [3] [%]	Toxicity at 30 mg/kg [4]	Mice plasma concentration (single dose) [1]
Br.CCC(C)n1cnc2c(O)c(Cl)cc(Cl)c2c1=O (stereo not drawn) [drawing 185]	Up to 383 ng/mL	104	71	94.3	74.5	10 days, none	–
CN(C)Cc1nc2c(O)c(Cl)cc(Cl)c2c(=O)n1CC1CC1.Cl	Up to 1166.6 ng/mL	–	–	94.4	74.5	10 days, none	–
CCCc1cnc2c(O)cccn2c1=O	Up to 690 ng/ml ng/mL	–	–	79.1	45.2	10 days, none	–
O=c1c2c(Cl)cc(Cl)c(O)c2ncn1Cc1ccn2ccnc2c1	Up to 1465.4 ng/mL	–	–	105	105	10 days, none	–
O=c1c2c(Cl)cc(Cl)c(O)c2ncn1Cc1ccncc1	Up to 2181.1 ng/mL	–	–	105	90.4	10 days, none	–
Cc1noc(C)c1-n1cnc2c(O)c(Cl)cc(Cl)c2c1=O	Up to 7107 ng/mL	–	–	106	94.2	10 days, none	–
O=C(O)CCCn1cnc2c(O)c(Cl)cc(Cl)c2c1=O	Up to 17008 ng/mL	–	–	110	103	10 days, none	–
O=c1c2c(Cl)cc(Cl)c(O)c2ncn1Cc1cn2ccccc2n1	Up to 98.3 ng/mL	–	–	109	98.2	10 days, none	–
Br.CN1CCCC1Cn1cnc2c(O)c(Cl)cc(Cl)c2c1=O (stereo not drawn)	Up to 382.5 ng/mL	–	–	107	93.9	10 days, none	–
O=c1c2c(Cl)cc(Cl)c(O)c2ncn1Cc1nc2ccccc2[nH]1	Up to 2796 ng/mL	–	–	102	100	10 days, none	–
CCn1cnc2c(O)c(I)cc(Cl)c2c1=O	Up to 1802 ng/mL	–	–	101	50.4	10 days, 2/4 deaths	–
CCn1c(CN(C)C)nc2c(O)c(Cl)cc(Cl)c2c1=O.Cl	Up to 975.9 ng/mL	–	–	99.2	102	10 days, none	–
CCn1cnc2c(O)c(I)ccc2c1=S	Up to 400 ng/ml ng/mL	–	–	85.7	43	10 days, none, 1/4 mild signs	–
O=c1c2c(Cl)cc(Cl)c(O)c2ncn1Cc1nccs1	Up to 441.4 ng/mL	–	–	96	99.8	10 days, none	–
CC(C)c1cnc2c(O)cccn2c1=O	Up to 409 ng/ml ng/mL	–	–	99.7	45.6	10 days, none	–
Br.CCN(CC)Cc1nc2c(O)c(Cl)cc(Cl)c2c(=O)[nH]1	Up to 2289 ng/mL	–	–	106	99.1	10 days, none	–
